Data from US7785581B2, “Composition and method for reducing feces toxins and treating digestive disorders” (Qingdao East Sea Pharmaceuticals Ltd., priority 2006, dated 2010).

What was measured:
Assay type in all cases: in vivo, human
patients with diarrhea [1] = assay: Treatment of diarrhea associated with alcohol intake (Example 10); details: 14 to 21 days
patients with diarrhea [2] = assay: Treatment of diarrhea associated with cold or raw food, or with common cold (Example 9); details: 14 to 21 days
IBS patients = assay: Treatment of IBS with live Bifidobacterium tablets (Example 8)
[3] = diarrhea after drinking alcohol
[4] = diarrhea after cold/raw food or common cold
[5] = 57 IBS patients, 14 to 21 days, cured plus effective

Bifidobacterium
effectiveness in treating diarrhea associated with alcohol intake (patients with diarrhea [1]): highly effective
Cured (cases) (patients with diarrhea [1]; [3]): 21
Effective (cases) (patients with diarrhea [1]; [3]): 13
Improved (cases) (patients with diarrhea [1]; [3]): 4
Ineffective (cases) (patients with diarrhea [1]; [3]): 0
Efficacy (patients with diarrhea [1]; diarrhea after drinking alcohol, cured plus effective): 89.5%
effectiveness in treating diarrhea associated with eating cold or raw foods, or with common cold (patients with diarrhea [2]): highly effective
Cured (cases) (patients with diarrhea [2]; [4]): 23
Effective (cases) (patients with diarrhea [2]; [4]): 14
Improved (cases) (patients with diarrhea [2]; [4]): 5
Ineffective (cases) (patients with diarrhea [2]; [4]): 0
Efficacy (patients with diarrhea [2]; diarrhea after cold/raw food or common cold, cured plus effective): 88.10%
Cured % (IBS patients; 57 IBS patients, 14 to 21 days): 61%
Cured Case No. (IBS patients; 57 IBS patients, 14 to 21 days): 35
Effective % (IBS patients; 57 IBS patients, 14 to 21 days): 28%
Effective Case No. (IBS patients; 57 IBS patients, 14 to 21 days): 16
Improved % (IBS patients; 57 IBS patients, 14 to 21 days): 11%
Improved Case No. (IBS patients; 57 IBS patients, 14 to 21 days): 6
Ineffective % (IBS patients; 57 IBS patients, 14 to 21 days): 0%
Ineffective Case No. (IBS patients; 57 IBS patients, 14 to 21 days): 0
Effective Cases % (overall effective rate) (IBS patients; [5]): 89%
Effective Cases Case No. (IBS patients; [5]): 51
other IBS symptoms, such as abdominal pain and discomfort (IBS patients; IBS patients): alleviated
symptoms of diarrhea or constipation (IBS patients; most of the IBS patients): ameliorated
